The values that follow come from patent publication US20130281361A1, “METHODS OF TREATING AND PREVENTING RHINOVIRUS INFECTION” (priority 2010, published 2013).

The test system of one assay is rhinovirus (Rv16). Put plainly: Rhinovirus (Rv16) infectivity: virus incubated with peptide, titer quantified by TCID50 assay using H1-HeLa cells. The class given is cell-based. The note with it: for concentration at which maximal efficacy was reached / reduction of rhinovirus titer at maximal efficacy: Rv16, 1 hour at 37° C.; for reduction of rhinovirus titer at maximal efficacy: at the concentration given under E5. Here is the method:
To determine if β-defensins had antiviral activity against rhinovirus, recombinant human β-defensins (Peprotech, Rocky Hill, N.J.) were used in assays with rhinovirus (Rv16). Recombinant β-defensin proteins were diluted in PBS to the desired concentrations (0.25-1.25 μg/mL). Virus was added to each tube to a final volume of 40 μL and incubated for 1 hour at 37° C. plus 5% CO2. After incubation, 200 uL of cell culture media was added to each tube and viral titers were quantified in a 50% Tissue Culture Infectious Dose (TCID50) assay using H1-HeLa cells. The TCID50 assay is a standard endpoint dilution assay that is used to quantify how much of a given virus is present in a sample. The limit of detection for rhinovirus in the assay was 1.2 log10 TCID50.
Human α-defensins and LL-37, a broadly expressed antimicrobial peptide from the cathelicidin family, were also tested for antiviral activity against rhinovirus. Recombinant human α-defensins (HNP-1, HNP-3 and HNP-5) (Pepnet, Louisville, Ky.) and recombinant LL-37 (Pepnet, Louisville, Ky.) were used in assays with rhinovirus (Rv16) to determine their antiviral activity. Recombinant HBD-3 (Peprotech, Rocky Hill, N.J.) was used as a control. The recombinant proteins were diluted in PBS to the desired concentrations (see FIG. 2). Virus was added to each tube to a final volume of 40 μL and incubated for 1 hour at 37° C. plus 5% CO2. After incubation, 200 μL of cell culture media was added to each tube and the concentration of virus was quantified by TCID50 assay using H1-HeLa cells. The limit of detection for rhinovirus in the assay was 1.2 log10 TCID50/mL.

The test system of a further assay is rhinovirus. The settings on record: Proud et al., J Immunol 172:4637-4645, 2004; cited from earlier work.
A further assay has as its system adenovirus. The settings on record: background literature; cited from earlier work.
The test system of the next assay is papillomavirus. The settings on record: background literature; cited from earlier work.

“Also recorded” adds a separate entry of the source. No end group written: not given here.

As to “human β-defensin 3 (GIINTLQKYYCRVRGGRCAVLSCLPKEEQIGKCSTRGRKCCRRKK; ends and bridges not checked; cysteine pairing not given here; UniProt P81534 23-67, looked up) [HBD-3, recombinant human β-defensin (Peprotech)]”, the “antiviral activity against rhinovirus (Rv16), in words” value (“antiviral activity against rhinovirus” for short) was “significantly reduced viral concentration; also recorded: exhibited antiviral activity” in the assay on rhinovirus (Rv16) (Example 1, FIG. 1) and “most susceptible” in the assay on rhinovirus (Rv16) (Example 2, FIG. 2).

Take human β-defensin 2 [HBD-2]: the “antiviral activity against rhinovirus” value in the assay with rhinovirus (Rv16) (Example 1, FIG. 1) was “significantly reduced viral concentration; also recorded: exhibited antiviral activity”. In the assay on rhinovirus, the “ability to inactivate rhinovirus” value was “unable to inactivate rhinovirus”. The “antiviral activity against adenovirus” value in the assay with adenovirus is reported as “not”. Also, the “antiviral activity against papillomavirus” value in the assay with papillomavirus was “not”.

As for “human β-defensin 4 (EFELDRICGYGTARCRKKCRSQEYRIGRCPNTYACCLRKWDESLLNRTKP; ends and bridges not checked; cysteine pairing not given here; UniProt Q8WTQ1 23-72, looked up) [HBD-4, recombinant human β-defensin (Peprotech)]”, the “antiviral activity against rhinovirus” value in the assay on rhinovirus (Rv16) (Example 1, FIG. 1) is reported as “significantly reduced viral concentration; also recorded: exhibited antiviral activity”.

As to “human β-defensin 1 (DHYNCVSSGGQCLYSACPIFTKIQGTCYRGKAKCCK; ends and bridges not checked; cysteine pairing not given here; UniProt P60022 33-68, looked up) [HBD-1, recombinant human β-defensin (Peprotech)]”, the “antiviral activity against rhinovirus” value in the assay with rhinovirus (Rv16) (Example 1, FIG. 1) is “significantly reduced viral concentration; also recorded: exhibited antiviral activity”. The “antiviral activity against adenovirus” value with adenovirus is reported as “antiviral activity was observed”. For the same molecule, in the assay with papillomavirus, the “antiviral activity against papillomavirus” value is reported as “antiviral activity was observed”.

As to “human defensin 5 (ATCYCRTGRCATRESLSGVCEISGRLYRLCCR; ends and bridges not checked; cysteine pairing not given here; UniProt Q01523 63-94, looked up, fragment) [HD5, human α-defensin]”, the “antiviral activity against adenovirus” value in the assay with adenovirus is “antiviral activity was observed”. In the assay with papillomavirus, the “antiviral activity against papillomavirus” value is listed as “antiviral activity was observed”.

As to human neutrophil peptide 3 [HNP-3], in the assay on rhinovirus (Rv16) (Example 2, FIG. 2), the “antiviral activity against rhinovirus” value is “exhibited antiviral activity”; the “concentration at which maximal efficacy was reached” value (“concentration” below) amounted to 2.5 µg/mL; the “reduction of rhinovirus titer at maximal efficacy” value (“reduction of rhinovirus titer” for short) amounted to 2.3 Log10 TCID50/mL.

As to human neutrophil peptide 1 [HNP-1], in the assay on rhinovirus (Rv16) (Example 2, FIG. 2), the “antiviral activity against rhinovirus” value was “exhibited antiviral activity”; the “concentration” value is 5 µg/mL; the “reduction of rhinovirus titer” value is on record as 1 Log10 TCID50/mL. In addition, the “antiviral activity against adenovirus” value with adenovirus was “antiviral activity was observed”. Besides, the “antiviral activity against papillomavirus” value in the assay on papillomavirus is on record as “antiviral activity was observed”.

B1: HNP-5: recombinant human α-defensin (Pepnet), α-5; probably human defensin 5 (HD5) (protein, UniProt Q01523 20-94, looked up)
Defensin alpha 5: ESLQERADEATTQKQSGEDNQDLAISFAGNGLSALRTSGSQARATCYCRTGRCATRESLSGVCEISGRLYRLCCR
modifications: Defensin-5 recombinant
Regarding B1, in the assay on rhinovirus (Rv16) (Example 2, FIG. 2), the “antiviral activity against rhinovirus” value is listed as “most effective; also recorded: exhibited antiviral activity”; the “concentration” value is 2 µg/mL; the “reduction of rhinovirus titer” value was 2.5 Log10 TCID50/mL.
